# Measurements: patent publication US20110230566A1, “PERFLUOROCARBON EYE CREAM FORMULATIONS” (priority 2010, published 2011)
# Columns and labels:
# [1] = Oxygen and CO2 carrying capacity of the PFC; assay type: physicochemical; conditions: at body temperature
# Description: Perfluoro(tert-butylcyclohexane) can carry about 43 mL of oxygen per 100 mL of PFC, and 196 mL of CO2 per 100 mL of PFC at body temperature.
# [2] = Physical properties of perfluoro(tert-butylcyclohexane); assay type: physicochemical
# Description: Physical properties of perfluoro(tert-butylcyclohexane) are as follows:
# Oxycyte® is a perfluorocarbon emulsion oxygen carrier. The active ingredient in Oxycyte®, perfluoro(tert-butylcyclohexane) (C10F20, MW˜500), also known as F-tert-butylcyclohexane or “FtBu”, is a saturated alicyclic PFC. […] Oxycyte® can be used in the PFC compositions, methods and uses described herein.
# Being that the PFCs are slightly lipophilic at body temperature and would help in the transport of oxygen into and removal of carbon dioxide from, e.g., periocular skin.
compound,measurement,setting,value
FC(F)(F)C(C(F)(F)F)(C(F)(F)F)C1(F)C(F)(F)C(F)(F)C(F)(F)C(F)(F)C1(F)F [perfluoro(tert-butylcyclohexane)],CO2 carried,[1],~196 mL of CO2 per 100 mL of PFC
same,oxygen carried,[1],about 43 mL of oxygen per 100 mL of PFC
same,Density,[2],1.97 g/mL
same,Kinematic Viscosity,[2],5.378 cP
same,water solubility,[2],non-water soluble
same,Vapor Pressure,[2]; @ 25° C.,3.8 mmHg
same,Vapor Pressure,[2]; @ 37° C.,4.4 mmHg
same,lipophilicity,[2]; at body temperature,only slightly lipophilic
same,lipophilicity,[2]; at room temperature,not lipophilic
same,lipophilicity,[2]; temperature not stated,non-lipophilic
